Where a name gives a salt, the structure may show the parent alone.
Target: T1, human B1 (Homo sapiens, UniProt P46663)
T1 construct: host or cells: CHO-K1
T1 sequence (P46663 1-353): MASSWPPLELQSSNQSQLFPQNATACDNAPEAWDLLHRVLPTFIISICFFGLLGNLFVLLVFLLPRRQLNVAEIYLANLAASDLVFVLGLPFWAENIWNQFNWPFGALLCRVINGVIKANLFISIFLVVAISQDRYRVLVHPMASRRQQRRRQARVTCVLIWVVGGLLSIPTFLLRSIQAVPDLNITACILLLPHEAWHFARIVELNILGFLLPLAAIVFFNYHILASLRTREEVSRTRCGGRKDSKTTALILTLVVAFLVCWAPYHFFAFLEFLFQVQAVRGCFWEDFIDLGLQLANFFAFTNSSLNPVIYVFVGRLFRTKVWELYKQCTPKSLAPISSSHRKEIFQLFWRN
Assay: Calcium flux assay for Bradykinin B1 antagonist, CHO-K1 cell line expressing human B1
Assay type: cell-based
Conditions: CHO-K1 cells expressing human B1, agonist Lys-(Des-Arg)-Bradykinin, read-out: Potency (IC50 value against human B1)
Method in brief: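 CHO-K1 cells expressing human B1, loaded with 5 μM Fluo-4AM (2 h, 37° C) in HEPES buffer pH 7.4 with probenecid and 0.1% BSA, were preincubated 30 min at 25° C with compound (8 concentrations, triplicate, 1% DMSO) before B1 agonist addition. Ca2+ fluorescence monitored at 538 nm; background-normalized integrated values plotted against log antagonist concentration.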

COc1cc(C)c(S(=O)(=O)N(Cc2nc(C(=O)N(C)Cc3ccc(CN4CCCC4)cc3)co2)C2CC2)c(C)c1 [Ex 75, 2-({Cyclopropyl[(4-methoxy-2,6-dimethylphenyl)sulfonyl]amino}methyl)-N-methyl-N-[4-(pyrrolidin-1-ylmethyl)benzyl]-1,3-oxazole-4-carboxamide]
IC50: < 10 nM

COc1cc(C)c(S(=O)(=O)N(C)Cc2cc(C(=O)N(C)Cc3ccc(CN4CCCC4)cc3)co2)c(C)c1 [Ex 9, 5-({[(4-methoxy-2,6-dimethylphenyl)sulfonyl](methyl)amino}methyl)-N-methyl-N-[4-(pyrrolidin-1-ylmethyl)benzyl]furan-3-carboxamide]
IC50: 10 to 100 nM

COc1cc(C)c(S(=O)(=O)N(Cc2nc(C(=O)N3CC4CCNCC4C3)co2)C2CC2)c(C)c1 (stereo not shown) [Ex 205, N-Cyclopropyl-4-methoxy-2,6-dimethyl-N-{[4-(octahydro-2H-pyrrolo[3,4-c]pyridin-2-ylcarbonyl)-1,3-oxazol-2-yl]methyl}benzenesulfonamide]
IC50: 100 to 1000 nM

COc1cc(C)c(S(=O)(=O)N(Cc2cc(C(=O)NCc3cc(CN4CCCC4)ccc3F)co2)C2CC2)c(C)c1 [Ex 153, 5-({Cyclopropyl[(4-methoxy-2,6-dimethylphenyl)sulfonyl]amino}methyl)-N-[2-fluoro-5-(pyrrolidin-1-ylmethyl)benzyl]furan-3-carboxamide trifluoroacetate]
IC50: 100 to 1000 nM

CN(Cc1ccc(C2=NCCN2)cc1)C(=O)c1coc(CN(C)S(=O)(=O)c2c(Cl)cccc2Cl)c1 [Ex 23, 5-({[(2,6-dichlorophenyl)sulfonyl](methyl)amino}methyl)-N-[4-(4,5-dihydro-1H-imidazol-2-yl)benzyl]-N-methylfuran-3-carboxamide]
IC50: < 10 nM

COc1cc(C)c(S(=O)(=O)N(C)Cc2cc(C(=O)NCCc3ccc(CN4CC[C@H](N(C)C)C4)cc3)co2)c(C)c1 [Ex 92, N-[2-(4-{[(3S)-3-(Dimethylamino)pyrrolidin-1-yl]methyl}phenyl)ethyl]-5-({[(4-methoxy-2,6-dimethylphenyl)sulfonyl](methyl)amino}methyl)furan-3-carboxamide, trifluoroacetate]
IC50: 100 to 1000 nM

COc1cc(C)c(S(=O)(=O)N(Cc2nc(C(=O)N3CCC(N(C)C4CCN(C)CC4)C3)co2)C2CC2)c(C)c1 (stereo not shown) [Ex 208, N-Cyclopropyl-4-methoxy-2,6-dimethyl-N-{[4-({3-[methyl(1-methylpiperidin-4-yl)amino]pyrrolidin-1-yl}carbonyl)-1,3-oxazol-2-yl]methyl}benzenesulfonamide trifluoroacetate]
IC50: 100 to 1000 nM

COc1cc(C)c(S(=O)(=O)N(C)Cc2nnc(C(=O)N(C)Cc3ccc(CN4CCCC(OC)C4)cc3)o2)c(C)c1 (stereo not shown) [Ex 284, 5-({[(4-Methoxy-2,6-dimethylphenyl)sulfonyl](methyl)amino}methyl)-N-{4-[(3-methoxypiperidin-1-yl)methyl]benzyl}-N-methyl-1,3,4-oxadiazole-2-carboxamide]
IC50: 100 to 1000 nM

COc1cc(C)c(S(=O)(=O)N(C)Cc2cc(C(=O)NCCc3ccc(C4=NCCN4)cc3)co2)c(C)c1 [Ex 4, N-{2-[4-(4,5-dihydro-1H-imidazol-2-yl)phenyl]ethyl}-5-({[(4-methoxy-2,6-dimethylphenyl)sulfonyl](methyl)amino}methyl)furan-3-carboxamide]
IC50: < 10 nM

COc1cc(C)c(S(=O)(=O)N(C)Cc2nnc(C(=O)N3CCN(CCCN4CCCC4)CC3)o2)c(C)c1 [Ex 259, 4-Methoxy-N,2,6-trimethyl-N-[(5-{[4-(3-pyrrolidin-1-ylpropyl)piperazin-1-yl]carbonyl}-1,3,4-oxadiazol-2-yl)methyl]benzenesulfonamide]
IC50: 10 to 100 nM

COc1cc(C)c(S(=O)(=O)N(C)Cc2cc(C(=O)NCc3ccc(Nc4cccc[n+]4C)cc3)co2)c(C)c1 [Ex 12, 2-({4-[({[5-({[(4-methoxy-2,6-dimethylphenyl)sulfonyl](methyl)amino}methyl)furan-3-yl]carbonyl}amino)methyl]phenyl}amino)-1-methylpyridinium iodide]
IC50: 100 to 1000 nM

COc1cc(C)c(S(=O)(=O)N(C)Cc2nnc(C(=O)N(C)Cc3cccc(CN4CCCC4)c3)o2)c(C)c1 [Ex 289, 5-({[(4-Methoxy-2,6-dimethylphenyl)sulfonyl](methyl)amino}methyl)-N-methyl-N-[3-(pyrrolidin-1-ylmethyl)benzyl]-1,3,4-oxadiazole-2-carboxamide]
IC50: 10 to 100 nM

COc1cc(C)c(S(=O)(=O)N(Cc2nc(C(=O)N3CCC(O)(CN4CCN(C)CC4)CC3)co2)C2CC2)c(C)c1 [Ex 223, N-Cyclopropyl-N-{[4-({4-hydroxy-4-[(4-methylpiperazin-1-yl)methyl]piperidin-1-yl}carbonyl)-1,3-oxazol-2-yl]methyl}-4-methoxy-2,6-dimethylbenzenesulfonamide trifluoroacetate]
IC50: < 10 nM

COc1cc(C)c(S(=O)(=O)N(Cc2nc(C(=O)N(C)Cc3ccc(CN4CCC(NC(C)=O)C4)cc3)co2)C2CC2)c(C)c1 (stereo not shown) [Ex 185, N-(4-{[3-(Acetylamino)pyrrolidin-1-yl]methyl}benzyl)-2-({cyclopropyl[(4-methoxy-2,6-dimethylphenyl)sulfonyl]amino}methyl)-N-methyl-1,3-oxazole-4-carboxamide]
IC50: < 10 nM

COc1cc(C)c(S(=O)(=O)N(C)Cc2cc(C(=O)N(C)Cc3ccc(C(C)N4CCCC4)cc3)co2)c(C)c1 (stereo not shown) [Ex 88, 5-({[(4-Methoxy-2,6-dimethylphenyl)sulfonyl](methyl)amino}methyl)-N-methyl-N-[4-(1-pyrrolidin-1-ylethyl)benzyl]furan-3-carboxamide trifluoroacetate]
IC50: 100 to 1000 nM

COc1cc(C)c(S(=O)(=O)N(Cc2cc(C(=O)N3CCN(CC4CCCN(C)C4)CC3)co2)C2CC2)c(C)c1 (stereo not shown) [Ex 106, N-Cyclopropyl-4-methoxy-2,6-dimethyl-N-{[4-({4-[(1-methylpiperidin-3-yl)methyl]piperazin-1-yl}carbonyl)furan-2-yl]methyl}benzenesulfonamide trifluoroacetate]
IC50: 10 to 100 nM

COc1cc(C)c(S(=O)(=O)N(C)Cc2cc(C(=O)NCc3cc(F)cc(CN4CCCC4)c3)co2)c(C)c1 [Ex 155, N-[3-Fluoro-5-(pyrrolidin-1-ylmethyl)benzyl]-5-({[(4-methoxy-2,6-dimethylphenyl)sulfonyl](methyl)amino}methyl)furan-3-carboxamide trifluoroacetate]
IC50: 10 to 100 nM

COc1cc(C)c(S(=O)(=O)N(Cc2cc(C(=O)N3CCN(CCN4CCCCC4)CC3)co2)C2CC2)c(C)c1 [Ex 109, N-Cyclopropyl-4-methoxy-2,6-dimethyl-N-[(4-{[4-(2-piperidin-1-ylethyl)piperazin-1-yl]carbonyl}furan-2-yl)methyl]benzenesulfonamide trifluoroacetate]
IC50: 100 to 1000 nM

COc1cc(C)c(S(=O)(=O)N(Cc2cc(C(=O)N(C)Cc3ccc(C4=NCCN4)cc3)co2)C2CC2)c(C)c1 [Ex 83, 5-({cyclopropyl[(4-methoxy-2,6-dimethylphenyl)sulfonyl]amino}methyl)-N-[4-(4,5-dihydro-1H-imidazol-2-yl)benzyl]-N-methylfuran-3-carboxamide trifluoroacetate]
IC50: 10 to 100 nM

COc1cc(C)c(S(=O)(=O)N(Cc2nc(C(=O)N(C)CCc3ccc(C4=NCCN4)cc3)co2)C2CC2)c(C)c1 [Ex 79, 2-({Cyclopropyl[(4-methoxy-2,6-dimethylphenyl)sulfonyl]amino}methyl)-N-{2-[4-(4,5-dihydro-1H-imidazol-2-yl)phenyl]ethyl}-N-methyl-1,3-oxazole-4-carboxamide]
IC50: < 10 nM

COc1cc(C)c(S(=O)(=O)N(C)Cc2nc(C(=O)N(C)CCc3ccc(C4=NCCN4)cc3)co2)c(C)c1 [Ex 69, N-{2-[4-(4,5-dihydro-1H-imidazol-2-yl)phenyl]ethyl}-2-({[(4-methoxy-2,6-dimethylphenyl)sulfonyl](methyl)amino}methyl)-N-methyl-1,3-oxazole-4-carboxamide]
IC50: < 10 nM

COc1cc(C)c(S(=O)(=O)N(C)Cc2cc(C(=O)N3CCCC(c4ccc(C5=NCCN5)cc4)C3)co2)c(C)c1 (stereo not shown) [Ex 30, N-{[4-({3-[4-(4,5-dihydro-1H-imidazol-2-yl)phenyl]piperidin-1-yl}carbonyl)furan-2-yl]methyl}-4-methoxy-N,2,6-trimethylbenzenesulfonamide]
IC50: < 10 nM

COc1cc(C)c(S(=O)(=O)N(C)Cc2cc(C(=O)N(C)Cc3ccc(C4=NCCN4)cc3)co2)c(C)c1 [Ex 29, N-[4-(4,5-dihydro-1H-imidazol-2-yl)benzyl]-5-({[(4-methoxy-2,6-dimethylphenyl)sulfonyl](methyl)amino}methyl)-N-methylfuran-3-carboxamide]
IC50: < 10 nM

COc1cc(C)c(S(=O)(=O)N(Cc2nnc(C(=O)N3CCN(CCCN4CCCC4)CC3)s2)C2CC2)c(C)c1 [Ex 336, N-Cyclopropyl-4-methoxy-2,6-dimethyl-N-[(5-{[4-(3-pyrrolidin-1-ylpropyl)piperazin-1-yl]carbonyl}-1,3,4-thiadiazol-2-yl)methyl]benzenesulfonamide]
IC50: 10 to 100 nM

COc1cc(C)c(S(=O)(=O)N(C)Cc2nnc(C(=O)N3CCN(CC4CCCN(C)C4)CC3)o2)c(C)c1 (stereo not shown) [Ex 278, 4-Methoxy-N,2,6-trimethyl-N-{[5-({4-[(1-methylpiperidin-3-yl)methyl]piperazin-1-yl}carbonyl)-1,3,4-oxadiazol-2-yl]methyl}benzenesulfonamide]
IC50: 100 to 1000 nM

Source: patent publication US8623859B2, “Bradykinin B1 antagonists” (Evotec AG, priority 2008, dated 2014)
